According to patent publication US6150357A, “Potassium channel agonists” (Merck & Co., Inc., priority 1999, dated 2000):
“Also recorded” adds a separate entry of the source. Like-named read-outs stand apart in the source and are kept apart here.

Tests used:
Type in all cases: cell-based
[1] = molecular target: T1, slowly activating cardiac delayed rectifier potassium current (IKs) (Cavia porcellus, UniProt O70344); test: Whole-cell voltage-clamp of IKs in guinea pig ventricular myocytes; details: for V1/2 of IKs activation (isochronal, 7.5 s pulses): control 19.2±1.6 mV
T1 construct: Guinea pig ventricular myocytes were isolated as described; endogenous in cells; host or cells: isolated guinea pig ventricular myocytes
Description: (§1) Isolation of guinea pig ventricular myocytes.
(§2) Voltage-clamp of guinea pig ventricular myocytes. […] Pipettes were made from square bore (1.0 mm, o.d.) borosilicate capillary tubing (Glass Co. of America, Bargaintown, N. J.). […] (average 5.5±0.3 M.OMEGA.). Series resistance was compensated 40-70%. Currents were low-pass filtered (-3 dB at 0.2 kHz) before digitization at 1 kHz. […] Cells were voltage clamped at a holding potential (Vh) of -50 mV to inactivate INa. Time-dependent IKs amplitude was measured as the difference from the initial instantaneous current, following the settling of the capacity transient, to the final current level at the end of a depolarizing pulse. Tail current amplitude, IKtail, was measured as the difference from the holding current level to the peak tail current amplitude upon return to Vh. IKtail was normalized to the maximum measured amplitude (IKtail-max) following 7.5 s pulses. Averaged data was fit to a Boltzmann distribution of the form: IKtail /IKtail-max =1/(1+exp[(V1/2 -Vt)/k]) with a nonlinear least squares fitting routine (Origin, Microcal Software, Northampton, Mass.) to estimate the half-point (V1/2) and slope factor (k) for this relationship. The time courses of IKs activation and deactivation were fit with a double exponential relationship of the form: It =A0 +A1 e^-t/t 1+A2 e^-t/t 2 using a Chebeshev non-iterative fitting technique (pCLAMP, Axon Instruments, Foster City, Calif.).
(§3) Solutions. Compounds were dissolved in dimethyl sulfoxide (DMSO) at a stock concentration of 1 or 10 mM and diluted directly into test solutions. Serial dilutions were used to achieve the final test concentrations. […] Nisoldipine was prepared as a 4 mM stock solution in DMSO and diluted as needed.
(§4) Statistics. Data are expressed as mean ± SEM (N=number of cells). Concentration-dependent changes in AP parameters and individual ionic currents were assessed by repeated-measures analysis of variance (ANOVA). Post-Hoc comparison of the treatment to the control means were made with Dunnett's t-test to determine significant changes between the control and test group means. Statistical comparisons for the time constants of IKs activation and deactivation were made using a paired t-test. A one-tailed probability (p)<0.05 was considered significant.

[2] = tested on: guinea pig isolated ventricular myocytes; test: Action potential studies in guinea pig isolated ventricular myocytes
Description: Isolation of guinea pig ventricular myocytes. Guinea pig ventricular myocytes were isolated as described (Salata J J, Jurkiewicz N K, Wallace A A, Stupienski R F III, Guinosso P J Jr and Lynch J J Jr. (1995). Cardiac electrophysiologic actions of the histamine H1 -receptor antagonists astemizole and terfenadine compared with chlorpheniramine and pyrilamine. Circ Res 76: 110-119.). After isolation, the cells were stored in HEPES-buffered saline (HBS) containing (mM): 132 NaCl, 4 KCl, 1.8 CaCl2, 1.2 MgCl2, 10 HEPES (formal name N-2-Hydoxyethylpiperazine-N-2-ethanesulfonic acid), 10 glucose, pH=7.2, at 24-26° C. until studied, usually within 8 hours after isolation.
Action potential studies. Transmembrane potentials were recorded using conventional microelectrodes filled with 3 M KCl (tip resistances 30-50 M.OMEGA.) using an Axoclamp 2B amplifier (Axon Instruments; Foster City, Calif.) as described (Fermini B, Jurkiewicz N K, Jow B, Guinosso P J Jr, Baskin E P, Lynch J J Jr and Salata J J. (1995). Use-dependent effects of the Class III antiarrhythmic agent NE-10064 (azimilide) on cardiac repolarization: Block of delayed rectifier potassium and L-type calcium currents. J Cardiovasc Pharmacol 26: 259-271.). Cells were superfused with HBS maintained at 37° C. at a rate of 2 ml/min. APs were evoked with brief current pulses (1 ms, 1.2 times threshold) delivered at a frequency of 1 Hz through the recording electrode using an active bridge circuit. Only cells showing normal AP configurations and resting membrane potentials equal to or more negative than -85 mV were used in this study. APs were studied after a ≥5 min control period, and after ≥5 min of superfusion with each concentration of drug. After reaching a steady state effect under each condition, 20 individual APs were sampled and digitally averaged. The amplitude at 50 ms (APA50 ms) and duration at 90% repolarization (APD90) were measured from the digitally averaged records. Concentration-response relationships were determined by measuring APs or currents in each cell under control conditions and during superfusion with successively increasing concentrations of a given drug.
(§5) Solutions. Compounds were dissolved in dimethyl sulfoxide (DMSO) at a stock concentration of 1 or 10 mM and diluted directly into test solutions. Serial dilutions were used to achieve the final test concentrations. DMSO at the concentrations used had no significant effect on any of the parameters measured in these studies. Nisoldipine was prepared as a 4 mM stock solution in DMSO and diluted as needed.
as §4

[3] = tested on: slowly activating cardiac delayed rectifier potassium current (IKs); test: Whole-cell voltage-clamp of IKs in guinea pig ventricular myocytes; details: 10 nM Iso alone; 0.5 s pulses
Description: as §1, §2, §3, §4

human KvLQT1 channels = molecular target: T2, human KvLQT1 channels (Homo sapiens, UniProt P51787); test: Two-microelectrode voltage clamp of cloned KvLQT1 channels expressed in Xenopus oocytes; details: 1 μM
T2 construct: homotetramer
Description: cRNA injection and voltage-clamp of oocytes. The isolation and maintenance of Xenopus oocytes, in vitro transcription of KvLQT1 complementary RNA (cRNA) and its injection into oocytes were performed as described previously (Sanguinetti M C, Curran M E, Zou A, Shen J, Spector P S, Atkinson D L and Keating M T. (1996b). Coassembly of KvLQT1 and minK (IsK) proteins form cardiac IKs potassium channel. Nature 384: 80-83.; Sanguinetti M C, Jiang C, Curran M E and Keating M T. (1995). A mechanistic link between an inherited and an acquired cardiac arrhythmia: HERG encodes the IKr potassium channel. Cell 81: 299-307.). Stage V and VI oocytes were injected with 11.5 ng of KvLQT1 cRNA (46 nL of a 250 ng/μL solution) Currents were recorded 2 to 4 days later using standard two-microelectrode voltage clamp techniques and a Dagan TEV-200 amplifier. Oocytes were bathed at room temperature (22-25° C.) in a solution containing (mM): 94 NaCl, 2 KCl, 2 MgCl2, 0.1 CaCl2, 5 HEPES; pH 7.6.
as §5

[4] = 1 μM, read-out: Agonist Effect - % Increase in IKs, Vt +50 mV
[5] = 10 μM, read-out: Agonist Effect - % Increase in IKs, Vt +50 mV
[6] = 10 μM, read-out: Agonist Effect - % Increase in IKs, Vt -10 mV

T2 sequence (P51787 whole entry): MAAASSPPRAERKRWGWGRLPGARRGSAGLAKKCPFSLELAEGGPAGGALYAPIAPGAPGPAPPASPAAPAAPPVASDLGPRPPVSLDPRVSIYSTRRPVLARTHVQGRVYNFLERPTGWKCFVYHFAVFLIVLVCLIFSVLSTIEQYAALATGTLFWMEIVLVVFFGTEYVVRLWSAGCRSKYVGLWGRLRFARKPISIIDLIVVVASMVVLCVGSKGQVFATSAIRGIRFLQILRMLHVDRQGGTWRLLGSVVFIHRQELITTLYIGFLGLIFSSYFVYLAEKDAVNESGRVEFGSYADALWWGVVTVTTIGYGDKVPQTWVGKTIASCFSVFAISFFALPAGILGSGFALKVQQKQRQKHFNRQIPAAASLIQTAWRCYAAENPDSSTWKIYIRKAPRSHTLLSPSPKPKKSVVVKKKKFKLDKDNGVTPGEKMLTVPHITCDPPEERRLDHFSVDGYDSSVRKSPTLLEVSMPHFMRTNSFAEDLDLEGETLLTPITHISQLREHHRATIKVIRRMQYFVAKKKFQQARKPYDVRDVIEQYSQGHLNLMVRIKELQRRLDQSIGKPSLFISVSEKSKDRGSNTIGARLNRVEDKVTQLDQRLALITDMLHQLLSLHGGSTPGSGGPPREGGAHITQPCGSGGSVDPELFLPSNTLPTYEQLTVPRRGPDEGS

SMILES: O=C1CC2(CCN(C(=O)Nc3ccccc3)CC2)Oc2ccccc21 [L7, N-phenyl-1'-(carboxamido)-spiro[2H-1-benzopyran-2,4'-piperidin]-4(3H)-one]
- Agonist Effect - % Increase in IKs, Vt -10 mV ([1]; 1 μM): no change
- activation at 1 µM [1, 4]: 111 ± 28%

SMILES: Cc1cccc(NC(=O)N2CCC3(CC2)CC(=O)c2ccccc2O3)c1 [L8, N-(3-tolyl)-1'-(carboxamido)-spiro[2H-1-benzopyran-2,4'-piperidin]-4(3H)-one]
- Agonist Effect - % Increase in IKs, Vt -10 mV ([1]; 10 μM): no change
- activation at 10 µM [1, 5]: 65 ± 17%

SMILES: O=C1Nc2ccc(Cl)cc2C(c2ccccc2)=N[C@@H]1Cc1c[nH]c2ccccc12 [R-L5, (3-R)-7-chloro-1,3-dihydro-5-phenyl-3-(1H-indol-3-ylmethyl)-2H-1,4-benzodiazepin-2-one]
- activation at 10 µM [1, 5]: 22 ± 6%
- activation at 10 µM [1, 6]: 22 ± 10%

SMILES: Cc1cccc(N2C(=O)NC3(N=C(c4ccccc4)c4ccccc4N(C)C3=O)C2=O)c1 (stereo not drawn) [L6, 1-methyl-5-phenyl-1'-(3-tolyl)-spiro[3H-1,4-benzodiazepine-3,4'-imidazolidine]-2(1H),2',5'-trione]
- activation at 10 µM [1, 5]: 31 ± 9%

SMILES: CC(C)NCC(O)c1ccc(O)c(O)c1 (stereo not drawn) [Iso, isoproterenol, reference compound]
- decrease in APD90 ([2]; 30 nM Iso alone): 12.9±2.9%
- activation at 0.03 µM ([2]; Cavia porcellus, Ventricular myocyte, 30 nM Iso alone, read-out: increase in APA50ms): 6.6 ± 2.9%
- increase in IKs [3]: 1.75 fold

SMILES: O=C1Nc2ccccc2C(c2ccccc2F)=N[C@@H]1Cc1c[nH]c2ccccc12 [R-L4, (3-R)-1,3-dihydro-5-(2-fluorophenyl)-3-(1H-indol-3-ylmethyl)-2H-1,4-benzodiazepin-2-one]
- activation at 1 µM [1, 4]: 44 ± 9%
- activation at 1 µM ([1]; 1 μM, read-out: Agonist Effect - % Increase in IKs, Vt -10 mV): 27 ± 7%
- activation at 10 µM [1, 5]: 114 ± 13%
- activation at 10 µM [1, 6]: 153 ± 37%

SMILES: CN1C(=O)[C@@H](Cc2c[nH]c3ccccc23)N=C(c2ccccc2F)c2ccccc21 [R-L3, (3-R)-1,3-dihydro-5-(2-fluorophenyl)-3-(1H-indol-3-ylmethyl)-1-methyl-2H-1,4-benzodiazepin-2-one]
- decrease in APD90 ([2]; 1 μM R-L3 in the continued presence of 100 nM timolol): 14.6±2.2%
- decrease in APD90 ([2]; 1 μM R-L3 in the presence of 30 nM Iso): 26.9±1.4%
- decrease in APD90 ([2]; 1 μM, stimulation at 1 Hz): 14.2±1.6%
- decrease in APD90 ([2]; 10 μM, stimulation at 1 Hz): 13.8±4.0%
- effect on APD ([2]; 0.1-1.0 μM, 1 Hz): concentration-dependent shortening of APD
- concentration at which shortening of APD was maximal ([2]; 1 Hz): 1 µM
- net effect on rate of KvLQT1 activation (human KvLQT1 channels): slow the rate of KvLQT1 activation
- shift in the voltage dependence of KvLQT1 activation (human KvLQT1 channels): -10 mV
- effect on KvLQT1 current (human KvLQT1 channels; 2 s pulses to -70 to +60 mV): increased KvLQT1
- slope factor (k) of KvLQT1 activation (human KvLQT1 channels; control 11 mV): 13 mV
- V1/2 of KvLQT1 activation (human KvLQT1 channels; control -28 mV): -40 mV
- effect on rate of KvLQT1 deactivation (human KvLQT1 channels; voltages negative to -40 mV): slowed the rate of KvLQT1 deactivation
- fold induction at 0.03 µM ([1]; 30 nM, 3 s depolarizations to Vt -10 mV from Vh -50 mV, read-out: IKs increased by a factor): 17 ± 5
- V1/2 of IKs activation (isochronal, 7.5 s pulses) ([1]; 0.1 μM): 3.0±0.8 mV
- activation at 0.1 µM ([1]; 0.1 μM, read-out: Agonist Effect - % Increase in IKs, Vt +50 mV): 25 ± 6%
- activation at 0.1 µM ([1]; 0.1 μM, read-out: Agonist Effect - % Increase in IKs, Vt -10 mV): 431 ± 123%
- fast time constants of IKs activation ([1]; 1 μM): slightly, but not significantly, faster
- maximally activated IKs ([1]; 1 μM, Vt +60 mV, control 896±196 pA, not significantly increased): 953±183 pA
- V1/2 of IKs activation (isochronal, 7.5 s pulses) ([1]; 1 μM): -4.9±3.4 mV
- shift of V1/2 of IKs activation ([1]; 1 μM, following pretreatment with 100 nM timolol): -19 mV
- activation at 1 µM [1, 4]: 40 ± 12%
- effect on time-dependent IKs at the end of 7.5 s pulses ([1]; 10 μM, Vh -50 mV): increased time-dependent IKs at the end of 7.5 s pulses to potentials <+10 mV, but decreased IKs at more positive potentials
- effect on slope factor k of IKs activation ([1]; 0.1 and 1 μM, control k 11.0±1.2 mV): not significantly changed; also recorded: had no effect on k
- fast and slow time constants of IKs deactivation ([1]; -60 to -10 mV following 3 s pre-pulse to +30 mV): significantly increased
- lowest concentration enhancing IKs ([1]; Vt -10 mV): 30 nM
- concentration of maximal effect on IKs ([1]; Vt -10 mV, 3 s pulses): 1 µM

SMILES: CN1C(=O)[C@H](Cc2c[nH]c3ccccc23)N=C(c2ccccc2F)c2ccccc21 [S-L3]
- inhibition at 1 µM ([1]; 1 μM, end of a 1-s test pulse to +50 mV, read-out: block of IKs): 14.8 ± 4.3%
- inhibition at 10 µM ([1]; 10 μM, end of a 1-s test pulse to +50 mV, read-out: block of IKs): 68.8 ± 3.4%
- effect on IKs ([1]; 1 to 10 μM, test potentials -10 to +50 mV): blocked IKs at all concentrations

SMILES: CC(C)(C)NC[C@H](O)COc1nsnc1N1CCOCC1 [timolol, reference compound]
- effect on AP configuration ([2]; 100 nM timolol): did not alter AP configuration
- effect on the effects of 30 nM Iso on the action potential ([2]; 100 nM timolol): prevented the effects of 30 nM Iso
